Values quoted from earlier work, collected in patent US5952383A, “Pharmaceutical composition for oral delivery” (Negma-Steba International Development N.V., priority 1996, dated 1999).
Structures can show the parent of a compound that is named as a salt.

How the values were obtained:
[1] = oral

Row | solubility in water (water, EP-A-243,968) | solubility in carbonate solutions and in tetrahydrofuran (carbonate solutions and tetrahydrofuran) | solubility in water and in alcohols (water and alcohols) | solubility in water and ethanol (water and ethanol) | absorption by the digestive tract [1] | Compound | undesirable side effects ([1]; on account of incomplete absorption)
1 | water-soluble |  |  |  |  | CC(=O)Oc1cccc2c1C(=O)c1c(OC(C)=O)cc(C(=O)O)cc1C2=O [potassium salt of diacerein] | 
2 |  | sparingly soluble | virtually insoluble | virtually insoluble | not totally absorbed | CC(=O)Oc1cccc2c1C(=O)c1c(OC(C)=O)cc(C(=O)O)cc1C2=O [diacerein, diacetylrhein] | laxative effects
